The molecules below were run on MCH receptors (assay: MCH receptor activity class (method not given)). Conditions: MCH receptor; class by percent of control at 10^-7 M or IC50.
With `CCOc1ccccc1C(=O)N[C@H]1CC[C@@H](Nc2cc(N(C)C)c3ccccc3n2)CC1` [compound 72] the class was 3 (Class 3 The value of percent of control at 10^−7 M was more than 60% or the value of IC50 was more than 200 nM.). For `CN(C)c1cc(N[C@H]2CC[C@@H](NC(=O)c3ccc(F)c(Cl)c3)CC2)nc2ccccc12` [compound 73, 3-chloro-N-(cis-4-{[4-(dimethylamino)quinolin-2-yl]amino}cyclohexyl)-4-fluorobenzamide], the class was 1 (Class 1: The value of percent of control at 10^−7 M was less than 40% or the value of IC50 was less than 50 nM.). In the case of `Cc1ccc(C(=O)N[C@H]2CC[C@@H](Nc3cc(N(C)C)c4ccccc4n3)CC2)cc1F` [compound 74, N-(cis-4-{[4-(dimethylamino)quinolin-2-yl]amino}cyclohexyl)-3-fluoro-4-methylbenzamide], the class is reported as 2 (Class 2: The value of percent of control at 10^−7 M was from 40% to 60% or the value of IC′50 was from 50 nM to 200 nM.). In the case of `CN(C)c1cc(N[C@H]2CC[C@@H](NC(=O)CC3CCCC3)CC2)nc2ccccc12` [compound 75], the class is reported as 3 (Class 3 The value of percent of control at 10^−7 M was more than 60% or the value of IC50 was more than 200 nM.). With `COc1cc(OC)cc(C(=O)N[C@H]2CC[C@@H](Nc3cc(N(C)C)c4ccccc4n3)CC2)c1` [compound 76, N-(cis-4-{[4-(dimethylamino)quinolin-2-yl]amino}cyclohexyl)-3,5-dimethoxybenzamide] the class was 3 (Class 3 The value of percent of control at 10^−7 M was more than 60% or the value of IC50 was more than 200 nM.). For `CN(C)c1cc(N[C@H]2CC[C@@H](NC(=O)c3ccc(C#N)cc3)CC2)nc2ccccc12` [compound 77], the class was 3 (Class 3 The value of percent of control at 10^−7 M was more than 60% or the value of IC50 was more than 200 nM.). With `CN(C)c1cc(N[C@H]2CC[C@@H](NC(=O)c3cc(C(F)(F)F)cc(C(F)(F)F)c3)CC2)nc2ccccc12` [compound 78, N-(cis-4-{[4-(dimethylamino)quinolin-2-yl]amino}cyclohexyl)-3,5-bis(trifluoromethyl)benzamide] the class was 2 (Class 2: The value of percent of control at 10^−7 M was from 40% to 60% or the value of IC′50 was from 50 nM to 200 nM.). With `CN(C)c1cc(N[C@H]2CC[C@@H](NC(=O)/C=C/c3ccc([N+](=O)[O-])cc3)CC2)nc2ccccc12` [compound 79] the class was 3 (Class 3 The value of percent of control at 10^−7 M was more than 60% or the value of IC50 was more than 200 nM.). For `CN(C)c1cc(N[C@H]2CC[C@@H](NC(=O)Cc3ccccc3Br)CC2)nc2ccccc12` [compound 80], the class was 3 (Class 3 The value of percent of control at 10^−7 M was more than 60% or the value of IC50 was more than 200 nM.). `Cc1cc(C(=O)N[C@H]2CC[C@@H](Nc3cc(N(C)C)c4ccccc4n3)CC2)ccc1F` [compound 81, N-(cis-4-{[4-(dimethylamino)quinolin-2-yl]amino}cyclohexyl)-4-fluoro-3-methylbenzamide] was tested, and the class was 1 (Class 1: The value of percent of control at 10^−7 M was less than 40% or the value of IC50 was less than 50 nM.). `CN(C)c1cc(N[C@H]2CC[C@@H](NC(=O)c3ccccc3SC(F)F)CC2)nc2ccccc12` [compound 82] was tested, and the class was 3 (Class 3 The value of percent of control at 10^−7 M was more than 60% or the value of IC50 was more than 200 nM.). With `CN(C)c1cc(N[C@H]2CC[C@@H](NC(=O)c3cc(Cl)sc3Cl)CC2)nc2ccccc12` [compound 83] the class was 2 (Class 2: The value of percent of control at 10^−7 M was from 40% to 60% or the value of IC′50 was from 50 nM to 200 nM.). With `CCCSc1ncccc1C(=O)N[C@H]1CC[C@@H](Nc2cc(N(C)C)c3ccccc3n2)CC1` [compound 84] the class was 3 (Class 3 The value of percent of control at 10^−7 M was more than 60% or the value of IC50 was more than 200 nM.). For `CN(C)c1cc(N[C@H]2CC[C@@H](NC(=O)c3cc(C(C)(C)C)nn3Cc3ccccc3)CC2)nc2ccccc12` [compound 85], the class was 3 (Class 3 The value of percent of control at 10^−7 M was more than 60% or the value of IC50 was more than 200 nM.). `CN(C)c1cc(N[C@H]2CC[C@@H](NC(=O)c3cc(C(C)(C)C)nn3C)CC2)nc2ccccc12` [compound 86] was tested, and the class was 3 (Class 3 The value of percent of control at 10^−7 M was more than 60% or the value of IC50 was more than 200 nM.). `C/C(=C\c1ccccc1)C(=O)N[C@H]1CC[C@@H](Nc2cc(N(C)C)c3ccccc3n2)CC1` [compound 87] was tested, and the class was 3 (Class 3 The value of percent of control at 10^−7 M was more than 60% or the value of IC50 was more than 200 nM.). For `CN(C)c1cc(N[C@H]2CC[C@@H](NC(=O)c3cncc(Br)c3)CC2)nc2ccccc12` [compound 88], the class was 3 (Class 3 The value of percent of control at 10^−7 M was more than 60% or the value of IC50 was more than 200 nM.). For `CN(C)c1cc(N[C@H]2CC[C@@H](NC(=O)Cc3cccc4ccccc34)CC2)nc2ccccc12` [compound 89], the class was 3 (Class 3 The value of percent of control at 10^−7 M was more than 60% or the value of IC50 was more than 200 nM.). `Cc1cc(C(=O)N[C@H]2CC[C@@H](Nc3cc(N(C)C)c4ccccc4n3)CC2)nn1C(C)(C)C` [compound 90] was tested, and the class was 3 (Class 3 The value of percent of control at 10^−7 M was more than 60% or the value of IC50 was more than 200 nM.). In the case of `CN(C)c1cc(N[C@H]2CC[C@@H](NC(=O)c3csc4ccccc34)CC2)nc2ccccc12` [compound 91], the class is reported as 3 (Class 3 The value of percent of control at 10^−7 M was more than 60% or the value of IC50 was more than 200 nM.). For `CN(C)c1cc(N[C@H]2CC[C@@H](NC(=O)c3ccccc3)CC2)nc2ccccc12` [compound 93], the class was 3 (Class 3 The value of percent of control at 10^−7 M was more than 60% or the value of IC50 was more than 200 nM.). In the case of `CN(C)c1cc(N[C@H]2CC[C@@H](NC(=O)c3cc4ccccc4s3)CC2)nc2ccccc12` [compound 94], the class is reported as 3 (Class 3 The value of percent of control at 10^−7 M was more than 60% or the value of IC50 was more than 200 nM.). With `CN(C)c1cc(N[C@H]2CC[C@@H](NC(=O)COCc3ccccc3)CC2)nc2ccccc12` [compound 95] the class was 3 (Class 3 The value of percent of control at 10^−7 M was more than 60% or the value of IC50 was more than 200 nM.). In the case of `CN(C)c1cc(N[C@H]2CC[C@@H](NC(=O)COc3ccc(Cl)cc3)CC2)nc2ccccc12` [compound 96], the class is reported as 1 (Class 1: The value of percent of control at 10^−7 M was less than 40% or the value of IC50 was less than 50 nM.). In the case of `CN(C)c1cc(N[C@H]2CC[C@@H](NC(=O)C3CCCCC3)CC2)nc2ccccc12` [compound 97], the class is reported as 3 (Class 3 The value of percent of control at 10^−7 M was more than 60% or the value of IC50 was more than 200 nM.). With `Cc1onc(-c2ccccc2Cl)c1C(=O)N[C@H]1CC[C@@H](Nc2cc(N(C)C)c3ccccc3n2)CC1` [compound 98] the class was 1 (Class 1: The value of percent of control at 10^−7 M was less than 40% or the value of IC50 was less than 50 nM.). With `CN(C)c1cc(N[C@H]2CC[C@@H](NC(=O)C3(c4ccc(Cl)cc4)CCCC3)CC2)nc2ccccc12` [compound 99] the class was 2 (Class 2: The value of percent of control at 10^−7 M was from 40% to 60% or the value of IC′50 was from 50 nM to 200 nM.).
